Laboratory results taken from patent publication US10246456B2, “IRAK4 inhibiting agents” (BIOGEN MA INC., priority 2014, dated 2019).

What follows are compounds tested against IRAK4 (Homo sapiens (Human), UniProt Q9NWZ3) (assay: IRAK-4 AlphaScreen biochemical kinase assay). Details: 1 nM IRAK4, 1 mM ATP, 3.5 h at RT.
Summary of the method: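 AlphaScreen read-out: streptavidin beads bind the biotinylated peptide and protein A beads bind the anti-phosphothreonine antibody, so energy transfer reports phosphorylation of the peptide. The kinase is human IRAK-4.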

IRAK4, sequence (Q9NWZ3 whole entry, species assumed): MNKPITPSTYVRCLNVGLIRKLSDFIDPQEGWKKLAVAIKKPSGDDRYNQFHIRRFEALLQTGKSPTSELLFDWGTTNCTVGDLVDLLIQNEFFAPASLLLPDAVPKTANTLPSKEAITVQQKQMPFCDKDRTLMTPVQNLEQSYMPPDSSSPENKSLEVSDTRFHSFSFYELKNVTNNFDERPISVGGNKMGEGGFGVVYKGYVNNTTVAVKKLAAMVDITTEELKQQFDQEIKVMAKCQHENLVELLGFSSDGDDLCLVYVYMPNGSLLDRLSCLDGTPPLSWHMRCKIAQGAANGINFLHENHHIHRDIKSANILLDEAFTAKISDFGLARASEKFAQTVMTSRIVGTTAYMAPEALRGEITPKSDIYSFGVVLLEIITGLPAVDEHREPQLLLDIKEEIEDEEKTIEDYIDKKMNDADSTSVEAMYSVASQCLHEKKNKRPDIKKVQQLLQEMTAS

Row | Compound | IC50 [nM]
1 | Cc1csc(-n2ncc3ccc(-c4cccc(C(C)N)n4)cc32)c1 (centres unmarked) [Example 282, 1-(6-(1-(4-methylthiophen-2-yl)-1H-indazol-6-yl)pyridin-2-yl)ethanamine] | 1000 to 10000
2 | CC(=O)Nc1cc(-c2cccc(C(C)N)n2)cc2c1cnn2-c1cccc(C)n1 (centres unmarked) [Example 103, N-(6-(6-(1-aminoethyl)pyridin-2-yl)-1-(6-methylpyridin-2-yl)-1H-indazol-4-yl)acetamide] | 100 to 1000
3 | CC(N)c1cccc(-c2ccc3cnn(-c4cccc(C(C)(C)N)n4)c3c2)n1 (centres unmarked) [Example 292, 2-(6-(6-(6-(1-aminoethyl)pyridin-2-yl)-1H-indazol-1-yl)pyridin-2-yl)propan-2-amine] | 1000 to 10000
4 | C[C@@H](N)c1ccnc(-c2ccc3cnn(-c4cccc(CO)n4)c3c2)n1 [Example 412, (R)-(6-(6-(4-(1-aminoethyl)pyrimidin-2-yl)-1H-indazol-1-yl)pyridin-2-yl)methanol] | 1000 to 10000
5 | CC(=O)c1cccc(-c2cc(N(C)C)c3cnn(-c4cccc(C)n4)c3c2)n1 [Example 233, 1-(6-(4-(dimethylamino)-1-(6-methylpyridin-2-yl)-1H-indazol-6-yl)pyridin-2-yl)ethanone] | 1000 to 10000
6 | NC1CCc2ccc(-c3ccc4cnn(-c5cccc(C(F)(F)F)n5)c4c3)nc21 (centres unmarked) [Example 62, 2-(1-(6-(trifluoromethyl)pyridin-2-yl)-1H-indazol-6-yl)-6,7-dihydro-5H-cyclopenta[b]pyridin-7-amine] | 1000 to 10000
7 | Cc1cccc(-n2ncc3ccc(-c4ncc(CN)s4)cc32)n1 [Example 140, (2-(1-(6-methylpyridin-2-yl)-1H-indazol-6-yl)thiazol-5-yl)methanamine] | 100 to 1000
8 | Nc1cncc(-c2ccc3cnn(-c4cccc(C(=O)NCCCO)n4)c3c2)c1 [Example 66, 6-(6-(5-aminopyridin-3-yl)-1H-indazol-1-yl)-N-(3-hydroxypropyl)picolinamide] | 100 to 1000
9 | CC(=O)c1cccc(-c2cc(F)c3cnn(-c4cccc(C(F)(F)F)n4)c3c2)n1 [Example 207, 1-(6-(4-fluoro-1-(6-(trifluoromethyl)pyridin-2-yl)-1H-indazol-6-yl)pyridin-2-yl)ethanone] | 1000 to 10000
10 | FC(F)(F)c1cccc(-n2ncc3ccc(-c4cccc(C5CCCN5)n4)cc32)n1 (centres unmarked) [Example 97, 6-(6-(pyrrolidin-2-yl)pyridin-2-yl)-1-(6-(trifluoromethyl)pyridin-2-yl)-1H-indazole] | 100 to 1000
11 | CCC[C@H](N)c1cccc(-c2ccc3cnn(-c4ccnc(CO)c4)c3c2)n1 [Example 400, (S)-(4-(6-(6-(1-aminobutyl)pyridin-2-yl)-1H-indazol-1-yl)pyridin-2-yl)methanol] | 100 to 1000
12 | C/C(=N/O)c1cccc(-c2ccc3cnc(-c4cccc(C(F)(F)F)n4)n3c2)n1 [Example 224, (Z)-1-(6-(3-(6-(trifluoromethyl)pyridin-2-yl)imidazo[1,5-a]pyridin-6-yl)pyridin-2-yl)ethanone oxime] | > 10000
13 | CCC[C@H](N)c1ccnc(-c2cc(OC)c3cnn(-c4cccc(CO)n4)c3c2)n1 [Example 574, (S)-(6-(6-(4-(1-aminobutyl)pyrimidin-2-yl)-4-methoxy-1H-indazol-1-yl)pyridin-2-yl)methanol] | < 100
14 | Cc1cccc(-n2ncc3ccc(-c4cccc([C@@H](C)N)n4)cc32)n1 [Example 141, (R)-1-(6-(1-(6-methylpyridin-2-yl)-1H-indazol-6-yl)pyridin-2-yl)ethanamine] | < 100
15 | Nc1cncc(-c2cc(CO)c3cnn(-c4cccc(C(F)(F)F)n4)c3c2)c1 [Example 54, (6-(5-aminopyridin-3-yl)-1-(6-(trifluoromethyl)pyridin-2-yl)-1H-indazol-4-yl)methanol] | < 100
16 | CCC[C@H](N)c1cccc(-c2cc(C3CCCO3)c3cnn(-c4cccc(CO)n4)c3c2)n1 (stereo partly drawn) [Example 477, (6-(6-(6-((S)-1-aminobutyl)pyridin-2-yl)-4-(tetrahydrofuran-2-yl)-1H-indazol-1-yl)pyridin-2-yl)methanol] | < 100
17 | Cc1cccc(-n2ncc3ccc(-c4cncc(N)c4O)cc32)n1 [Example 12, 3-amino-5-(1-(6-methylpyridin-2-yl)-1H-indazol-6-yl)pyridin-4-ol] | 1000 to 10000
18 | CC(N)c1cccc(-c2ccc3cnn(-c4cccc(C(F)(F)F)n4)c3c2)n1 (single isomer, unassigned; isomer b) [Example 84, 1-(6-(1-(6-(trifluoromethyl)pyridin-2-yl)-1H-indazol-6-yl)pyridin-2-yl)ethanamine-isomer B] | < 100
19 | CC(N)c1ccc(F)c(-c2ccc3cnn(-c4cccc(CO)n4)c3c2)n1 (centres unmarked) [Example 564, (6-(6-(6-(1-aminoethyl)-3-fluoropyridin-2-yl)-1H-indazol-1-yl)pyridin-2-yl)methanol] | 100 to 1000
20 | C[C@H](N)c1cccc(-c2cc(OCCCO)c3cnn(-c4cccc(CO)n4)c3c2)n1 [Example 459, (S)-3-((6-(6-(1-aminoethyl)pyridin-2-yl)-1-(6-(hydroxymethyl)pyridin-2-yl)-1H-indazol-4-yl)oxy)propan-1-ol] | < 100

More lines, now with the values ahead:

Row | IC50 [nM] | Compound
21 | < 100 | Nc1cncc(-c2ccc3cnn(-c4cccc(C(F)(F)F)n4)c3c2)c1 [Example 40, 5-(1-(6-(trifluoromethyl)pyridin-2-yl)-1H-indazol-6-yl)pyridin-3-amine]
22 | < 100 | CCC[C@H](N)c1cccc(-c2cc([C@@H]3CC[C@@H](C)O3)c3cnn(-c4cccc(CO)n4)c3c2)n1 [Example 479, (6-(6-(6-((S)-1-aminobutyl)pyridin-2-yl)-4-((2S,5R)-5-methyltetrahydrofuran-2-yl)-1H-indazol-1-yl)pyridin-2-yl)methanol]
23 | < 100 | Cc1cccc(-n2ncc3ccc(-c4cccc(C(N)CCO)n4)cc32)n1 (centres unmarked) [Example 247, 3-amino-3-(6-(1-(6-methylpyridin-2-yl)-1H-indazol-6-yl)pyridin-2-yl)propan-1-ol]
24 | < 100 | CCC[C@H](N)c1cccc(-c2ccc3cnn(-c4nccc(CO)n4)c3c2)n1 [Example 403, (S)-(2-(6-(6-(1-aminobutyl)pyridin-2-yl)-1H-indazol-1-yl)pyrimidin-4-yl)methanol]
25 | < 100 | Cc1cccc(-n2ncc3ccc(-c4cccc(C(N)CO)n4)cc32)n1 (centres unmarked) [Example 271, 2-amino-2-(6-(1-(6-methylpyridin-2-yl)-1H-indazol-6-yl)pyridin-2-yl)ethanol]
26 | < 100 | Nc1cncc(-c2ccc3cnn(-c4cccc(C5CC5)n4)c3c2)c1 [Example 27, 5-(1-(6-cyclopropylpyridin-2-yl)-1H-indazol-6-yl)pyridin-3-amine]
27 | < 100 | CC[C@H](N)c1cccc(-c2cc(OCCCO)c3cnn(-c4cccc(CO)n4)c3c2)n1 [Example 461, (S)-3-((6-(6-(1-aminopropyl)pyridin-2-yl)-1-(6-(hydroxymethyl)pyridin-2-yl)-1H-indazol-4-yl)oxy)propan-1-ol]
28 | < 100 | Nc1cncc(-c2ccc3cnc(-c4cccc(C(F)(F)F)n4)n3c2)c1 [Example 78, 5-(3-(6-(trifluoromethyl)pyridin-2-yl)imidazo[1,5-a]pyridin-6-yl)pyridin-3-amine]
29 | < 100 | Cc1cccc(-n2ncc3c(Cl)cc(-c4cccc(C(C)N)n4)cc32)n1 (centres unmarked) [Example 106, 1-(6-(4-chloro-1-(6-methylpyridin-2-yl)-1H-indazol-6-yl)pyridin-2-yl)ethanamine]
